Legend:
NIH3T3 fibroblasts = assay: Inhibition test of compounds on NIH3T3 fibroblasts (MTT method); type: cell-based; conditions: Mus musculus, relative IC50 obtained from multiple and IC50 of fluorofenidone on a certain plate
Procedure: Inhibition Test of Compounds on NIH3T3 fibroblasts
An MTT method is used and comprises steps of: culturing cells in DMEM culture medium including 5% calf serum and preparing the cells into cell suspension of 3×10^4/ml; inoculating in 96-well plate according to 100 μl/well; transferring new culture medium including compounds with different concentration, fluorofenidone and 1% calf serum after cells are adhered, wherein three repeated wells are provided for each concentration; respectively adding 100 μl of MTT solution in each well after 48 hours and 72 hours of administrating (the culture medium is prepared into 5 mg/ml and kept in dark after filtering), sucking out MTT after 4 hours; adding 150 μl of DMSO which is the dissolving liquid of MTT; after 10 min and MTT is completely dissolved, measuring OD value by ELISA reader; calculating IC50 values of fluorofenidone and measured compounds according to inhibition ratio; calculating multiple of activities of measured compounds and fluorofenidone according to IC50 values of fluorofenidone and measured compounds; and obtaining relative IC50 value of measured compounds according to multiple and IC50 value of fluorofenidone on a certain plate.

[1] = system: rat unilateral ureteral obstruction renal fibrosis model; assay: Treatment effect in a rat unilateral ureteral obstruction renal fibrosis model (HE and Masson staining); type: in vivo
Procedure: Observation of Treatment Effect of Compound 13 in a Rat Unilateral Ureteral Obstruction Renal Fibrosis Model
Nine male SD rats of 188-213 g, coming from Hunan Slac Laboratory Animals Co., Ltd., are illuminated for 12 hours every day; feed is provided by Shanghai Slac Laboratory Animals Co., Ltd.; and drinking water is provided by Department of Laboratory Animal Science of Central South University.
(1) Randomization: nine rats are divided into three groups at random, namely a normal group (n=3); a model group (n=3) and a treatment group (n=3) treated by compound 13 of 15 mg/kg; three rats are in a hutch; and the experimental animals are adaptively fed for two days. […]
HE stained slices of renal tissues are successively observed in fives fields of view of renal tubulointerstitium on upper left side, upper right side, lower left side, lower right side and middle portion by a low power lens and are evaluated according to eight indexes of renal interstitium lesion: renal tubular epithelial cell vacuolar degeneration, renal tubular ectasia, renal tubular atrophy, red cell cast, protein cast, interstitial edema, interstitial fibrosis and interstitial inflammatory cell infiltration; an average value is calculated as the index of renal tubulointerstitial lesion of the sample; and the evaluation standard is based on the reference of Radford M G Jr, Donadio J V Jr, Bergstralh E J, et al. Predicting renal outcome in IgA nephropathy. […]
Masson stained slices of renal tissues are observed in 20 fields of vision for each sample at random under 400× light microscope; percent of blue-stained collagens in the fields of vision is calculated; an average value is determined after semi-quantitative evaluation: no positive staining, 0; <25%, 1; 25-50%, 2; 50-75%, 3; >75%, 4; and the evaluation standard is based on references. […]

O=c1ccc(C(F)(F)F)cn1Cc1ccc(NCCN2CCN(CCO)CC2)cc1 [Compound 11, 1-(4-((2-(4-(2-hydroxyethyl)piperazin-1-yl)ethyl)amino)benzyl)-5-(trifluoromethyl)pyridin-2(1H)-one]
IC50 (NIH3T3 fibroblasts; 48 hours after administration): 526 µM
IC50 (NIH3T3 fibroblasts; 72 hours after administration): 131 µM

O=c1ccc(C(F)(F)F)cn1Cc1ccc(NCCN2CCOCC2)cc1 [Compound 8, 1-(4-((2-morpholinylethyl)amino)benzyl)-5-(trifluoromethyl)pyridin-2(1H)-one]
IC50 (NIH3T3 fibroblasts; 48 hours after administration): 367 µM
IC50 (NIH3T3 fibroblasts; 72 hours after administration): 229 µM

CC(=O)Nc1ccc(Cn2cc(C(F)(F)F)ccc2=O)cc1 [Compound 13, 1-(4-acetamide-benzyl)-5-(trifluoromethyl)pyridin-2(1H)-one]
Score (X ± S), renal interstitium collagens of left kidneys, MASSON staining ([1]; SD rats, UUO, 15 mg/kg intragastric once per day for 12 days, n=3, model group 2.45 ± 0.38, normal group 0.25 ± 0.00, p < 0.01 vs model): 1.52 ± 0.16^⋆⋆**
Score (X ± S), index of renal tubulointerstitial lesions of obstruction kidneys, HE staining ([1]; SD rats, UUO, 15 mg/kg intragastric once per day for 12 days, n=3, model group 9.00 ± 1.00, normal group 0.33 ± 0.12, p < 0.01 vs model): 7.00 ± 0.35^⋆⋆**
Treatment effect on renal fibrosis (conclusion) ([1]; rat UUO model, 15 mg/kg): can effectively treat renal fibrosis
IC50 (NIH3T3 fibroblasts; 48 hours after administration): 128 µM
IC50 (NIH3T3 fibroblasts; 72 hours after administration): 68 µM

O=c1ccc(C(F)(F)F)cn1Cc1c(Cl)cccc1Cl [Compound 14, 1-(2,6-dichlorobenzyl)-5-(trifluoromethyl)pyridin-2(1H)-one]
IC50 (NIH3T3 fibroblasts; 48 hours after administration): 346 µM
IC50 (NIH3T3 fibroblasts; 72 hours after administration): 182 µM

O=c1ccc(C(F)(F)F)cn1Cc1ccccc1F [Compound 20, 1-(2-fluorobenzyl)-5-(trifluoromethyl)pyridin-2(1H)-one]
IC50 (NIH3T3 fibroblasts; 48 hours after administration): 273 µM
IC50 (NIH3T3 fibroblasts; 72 hours after administration): 393 µM

Nc1ccccc1Cn1cc(C(F)(F)F)ccc1=O [Compound 17, 1-(2-aminobenzyl)-5-(trifluoromethyl)pyridin-2(1H)-one]
IC50 (NIH3T3 fibroblasts; 48 hours after administration): 1810 µM
IC50 (NIH3T3 fibroblasts; 72 hours after administration): 1270 µM

O=c1ccc(C(F)(F)F)cn1Cc1ccccc1NCCO [Compound 21, 1-(2-(2-hydroxyethylamino)benzyl)-5-(trifluoromethyl)pyridin-2(1H)-one]
IC50 (NIH3T3 fibroblasts; 48 hours after administration): 664 µM
IC50 (NIH3T3 fibroblasts; 72 hours after administration): 587 µM

COc1ccc(Cn2cc(C(F)(F)F)ccc2=O)cc1 [Compound 19, 1-(4-methoxybenzyl)-5-(trifluoromethyl)pyridin-2(1H)-one]
IC50 (NIH3T3 fibroblasts; 48 hours after administration): 301 µM
IC50 (NIH3T3 fibroblasts; 72 hours after administration): 384 µM

O=c1ccc(C(F)(F)F)cn1Cc1ccccc1NCCN1CCOCC1 [Compound 25, 1-(2-(2-morpholinoethylamino)benzyl)-5-(trifluoromethyl)pyridin-2(1H)-one]
IC50 (NIH3T3 fibroblasts; 48 hours after administration): 368 µM
IC50 (NIH3T3 fibroblasts; 72 hours after administration): 264 µM

O=c1ccc(C(F)(F)F)cn1Cc1ccccc1 [Structure IV, reference compound]
IC50 (NIH3T3 fibroblasts; 48 hours after administration): 1160 µM
IC50 (NIH3T3 fibroblasts; 72 hours after administration): 729 µM

O=c1ccc(C(F)(F)F)cn1Cc1ccccc1[N+](=O)[O-] [Compound 16, 1-(2-nitrobenzyl)-5-(trifluoromethyl)pyridin-2(1H)-one]
IC50 (NIH3T3 fibroblasts; 48 hours after administration): 1040 µM
IC50 (NIH3T3 fibroblasts; 72 hours after administration): 1030 µM

CN1CCN(CCCNc2ccc(Cn3cc(C(F)(F)F)ccc3=O)cc2)CC1 [Compound 5, 1-(4-((3-(4-methyl-piperazin-1-yl)propyl)amino)benzyl)-5-(trifluoromethyl)pyridin-2(1H)-one]
IC50 (NIH3T3 fibroblasts; 48 hours after administration): 141 µM
IC50 (NIH3T3 fibroblasts; 72 hours after administration): 98 µM

O=c1ccc(C(F)(F)F)cn1Cc1ccccc1NCCN1CCNCC1 [Compound 22, 1-(2-(2-(piperazin-1-yl)ethylamino)benzyl)-5-(trifluoromethyl)pyridin-2(1H)-one]
IC50 (NIH3T3 fibroblasts; 48 hours after administration): 168 µM
IC50 (NIH3T3 fibroblasts; 72 hours after administration): 291 µM

O=c1ccc(C(F)(F)F)cn1Cc1ccc(NCCO)cc1 [Compound 6, 1-(4-((2-hydroxyethyl)amino)benzyl)-5-(trifluoromethyl)pyridin-2(1H)-one]
IC50 (NIH3T3 fibroblasts; 48 hours after administration): 1010 µM
IC50 (NIH3T3 fibroblasts; 72 hours after administration): 638 µM

O=c1ccc(C(F)(F)F)cn1Cc1ccc(NCCCN2CCOCC2)cc1 [Compound 3, 1-(4-((3-morpholinylpropyl)amino)benzyl)-5-(trifluoromethyl)pyridin-2(1H)-one]
IC50 (NIH3T3 fibroblasts; 48 hours after administration): 424 µM
IC50 (NIH3T3 fibroblasts; 72 hours after administration): 229 µM

O=c1ccc(C(F)(F)F)cn1Cc1cccc(Cl)c1 [Compound 18, 1-(3-chlorobenzyl)-5-(trifluoromethyl)pyridin-2(1H)-one]
IC50 (NIH3T3 fibroblasts; 48 hours after administration): 1460 µM
IC50 (NIH3T3 fibroblasts; 72 hours after administration): 1350 µM

O=c1ccc(C(F)(F)F)cn1Cc1ccc(NCCN2CCCCC2)cc1 [Compound 7, 1-(4-((2-(piperidyl-1-yl)ethyl)amino)benzyl)-5-(trifluoromethyl)pyridin-2(1H)-one]
IC50 (NIH3T3 fibroblasts; 48 hours after administration): 4180 µM
IC50 (NIH3T3 fibroblasts; 72 hours after administration): 340 µM

Cc1ccc(=O)n(-c2cccc(F)c2)c1 [Fluorofenidone, reference compound]
IC50 (NIH3T3 fibroblasts; 48 hours after administration): 4430 µM
IC50 (NIH3T3 fibroblasts; 72 hours after administration): 3520 µM

Nc1ccc(Cn2cc(C(F)(F)F)ccc2=O)cc1 [Compound 2, 1-(4-amino-benzyl)-5-(trifluoromethyl)pyridin-2(1H)-one]
IC50 (NIH3T3 fibroblasts; 48 hours after administration): 1390 µM
IC50 (NIH3T3 fibroblasts; 72 hours after administration): 1510 µM

O=c1ccc(C(F)(F)F)cn1Cc1ccc([N+](=O)[O-])cc1 [Compound 1, 1-(4-nitrobenzyl)-5-(trifluoromethyl)pyridin-2(1H)-one]
IC50 (NIH3T3 fibroblasts; 48 hours after administration): 552 µM
IC50 (NIH3T3 fibroblasts; 72 hours after administration): 470 µM

CN1CCN(CCNc2ccc(Cn3cc(C(F)(F)F)ccc3=O)cc2)CC1 [Compound 9, 1-(4-((2-(4-methyl-piperazin-1-yl)ethyl)amino)benzyl)-5-(trifluoromethyl)pyridin-2(1H)-one]
IC50 (NIH3T3 fibroblasts; 48 hours after administration): 181 µM
IC50 (NIH3T3 fibroblasts; 72 hours after administration): 120 µM

O=c1ccc(C(F)(F)F)cn1Cc1ccc(F)cc1 [Compound 15, 1-(4-fluorobenzyl)-5-(trifluoromethyl)pyridin-2(1H)-one]
IC50 (NIH3T3 fibroblasts; 48 hours after administration): 1080 µM
IC50 (NIH3T3 fibroblasts; 72 hours after administration): 1090 µM

O=c1ccc(C(F)(F)F)cn1Cc1ccc(NCCCN2CCCCC2)cc1 [Compound 4, 1-(4-(((3-piperidin-1-yl)propyl)amino)benzyl)-5-(trifluoromethyl)pyridin-2(1H)-one]
IC50 (NIH3T3 fibroblasts; 48 hours after administration): 957 µM
IC50 (NIH3T3 fibroblasts; 72 hours after administration): 144 µM
